Laboratory results reported in article PMC11249646, “Small-Molecule Disruptors of the Interaction between Calcium- and Integrin-Binding Protein 1 and Integrin αIIbβ3 as Novel Antiplatelet Agents” (ACS Pharmacology & Translational Science, 2024).
Where two headings read alike, the source gives them in different places.

Assays:
Format in all cases: binding
[1] = target: T1, CIB1 and αIIb interaction (GST-CIB1 : F-αIIb peptide) (Homo sapiens, UniProt Q99828); assay: FP assay, 384-well format (screen); design: 384-well SCREEN Efficacy (%): concentration or dose not given beside the values; conditions: F-αIIb peptide; for 384-well SCREEN Confirm?: YES/NO; for IC50: read-out: 384-well SCREEN IC50
T1 construct: made in house; host or cells: BL-21 plus RIL cells (E. coli)
T1 sequence (Q99828 1-191): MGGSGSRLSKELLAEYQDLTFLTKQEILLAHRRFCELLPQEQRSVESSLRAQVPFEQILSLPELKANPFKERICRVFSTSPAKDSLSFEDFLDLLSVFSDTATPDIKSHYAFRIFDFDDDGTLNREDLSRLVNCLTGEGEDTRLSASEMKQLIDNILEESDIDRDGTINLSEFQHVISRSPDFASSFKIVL

[2] = target: T2, GST-CIB1 : F-scrambled peptide (Homo sapiens, UniProt Q99828); assay: FP scrambled-peptide counter screen, 384-well format; conditions: F-scrambled peptide; for IC50: read-out: 384-well COUNTERSCREEN IC50; for 384-well COUNTERSCREEN Confirm?: *: Curve in opposite direction
T2 construct: made in house; host or cells: BL-21 plus RIL cells (E. coli)
T2 sequence (Q99828 1-191): T1 sequence (Q99828 1-191)

[3] = target: T3, CIB1 and αIIb interaction (CIB1-GST : F-αIIb peptide) (Homo sapiens, UniProt Q99828); assay: FP assay, 1536-well qHTS format (primary and confirmatory screen); conditions: for CONFIRMATORY SCREEN Confirm?: YES/NO call; for CONFIRMATORY SCREEN Curve Class: qHTS curve class; for CONFIRMATORY SCREEN Curve Class / Curve Class: negative sign = inhibitory curve
T3 construct: made in house; host or cells: BL-21 plus RIL cells (E. coli)
T3 sequence (Q99828 1-191): T1 sequence (Q99828 1-191)

[4] = target: T2, GST-CIB1 : F-scrambled peptide; assay: FP scrambled-peptide counter screen, 1536-well format; conditions: for COUNTERSCREEN Confirm?: YES/NO call; for COUNTERSCREEN Curve Class: qHTS curve class
[5] = confirmatory screen, negative = inhibition
[6] = scrambled-peptide counterscreen
[7] = confirmatory screen, read-out: CONFIRMATORY SCREEN IC50
[8] = qHTS primary screen hits, Table S2, negative = inhibition
[9] = qHTS primary screen hits, Table S2, several classes where COUNT > 1
[10] = qHTS primary screen hits, Table S2, read-out: IC50

SMILES | 384-well SCREEN Efficacy (%) [1] | 384-well SCREEN Confirm? [1] | IC50 [1] | 384-well COUNTERSCREEN Efficacy (%) [2] | IC50 [2] | CONFIRMATORY SCREEN Confirm? ([3]; confirmatory screen) | CONFIRMATORY SCREEN Curve Class ([3]; confirmatory screen) | CONFIRMATORY SCREEN Efficacy (%) [3, 5] | COUNTERSCREEN Efficacy (%) [4, 6] | COUNTERSCREEN Confirm? [4, 6] | COUNTERSCREEN Curve Class [4, 6] | 384-well COUNTERSCREEN Confirm? [2] | IC50 [3, 7] | Efficacy (%) [3, 8] | Curve Class [3, 9] | IC50 [3, 10] | also measured
COc1ccccc1S(=O)(=O)Nc1cnccc1C(=O)Nc1nc(-c2ccccc2)cs1.O=C(O)C(F)(F)F [NCGC00344905-01] | 37% | YES | 7.1 µM | 44% | 10 µM | YES | -2.2 | -79% | -15% | YES | 4 | – | – | – | – | – | Efficacy (%) ([3]; qHTS FP screen hits, Table S2, negative = inhibition): -43%; Curve Class ([3]; qHTS FP screen hits, Table S2, one class per curve where COUNT > 1): -2.2
CCc1ccc(S(=O)(=O)Nc2cnccc2C(=O)Nc2nc(-c3ccccc3)cs2)cc1.O=C(O)C(F)(F)F [NCGC00344909-01] | 40% | YES | 35.5 µM | 44% | > 120 µM | YES | -2.2 | -82% | 14% | YES | 4 | YES | 22.4 µM | -57% | -2.2 | 79.4 µM | –
O=C(Nc1nc(-c2ccccc2)cs1)c1ccncc1NS(=O)(=O)c1cccc2cccnc12.O=C(O)C(F)(F)F [NCGC00344938-01] | 16% | YES | 6.3 µM | 18% | > 120 µM | YES | -2.2 | -93% | -33% | YES | -2.4 | YES | 35.5 µM | -56% | -2.2 | 39.8 µM | IC50 ([4]; scrambled-peptide counterscreen, read-out: COUNTERSCREEN IC50): 70.8 µM
Cc1ccccc1S(=O)(=O)Nc1cnccc1C(=O)Nc1nc(-c2ccccc2)cs1.O=C(O)C(F)(F)F [NCGC00344941-01] | 35% | YES | 17.8 µM | 20% | > 120 µM | YES | -1.2 | -59% | 10% | YES | 4 | YES | – | -51% | -2.2 | 44.7 µM | –
O=C(Nc1nc(-c2ccccc2)cs1)c1ccncc1NS(=O)(=O)c1ccccc1Cl.O=C(O)C(F)(F)F [NCGC00344943-01] | 32% | YES | 15.8 µM | 31% | > 120 µM | YES | -1.1 | -98% | 25% | YES | 4 | YES | – | – | – | – | –
Cc1cc(S(=O)(=O)Nc2cnccc2C(=O)Nc2nc(-c3ccccc3)cs2)c(C)o1.O=C(O)C(F)(F)F [NCGC00345029-01] | 42% | YES | 20 µM | 16% | > 120 µM | YES | -1.1 | -83% | 10% | YES | 4 | YES | – | – | – | – | –
O=C(Nc1nc(-c2ccccc2)cs1)c1ccncc1NS(=O)(=O)c1ccc2ccccc2c1.O=C(O)C(F)(F)F [NCGC00345031-01] | 47% | YES | – | 81% | 28.2 µM | YES | -1.4 | – | – | YES | 3 | YES* | 20 µM | -53% | – | 39.8 µM | CONFIRMATORY SCREEN Efficacy (%) [3]: -84%; Curve Class ([3]; qHTS primary screen hits, Table S2): -2.2; COUNTERSCREEN Efficacy (%) [4]: 0%
